Molecules are shown by their SMILES.

Experiment [1] has as its system human monocytes differentiated into macrophages under lactic acidosis (LA-Mφ). The experiment in a line: Mitochondrial network architecture, morphology and size (confocal microscopy, TEM). The following applies: 5 mM AcAc, 10 mM lactic acid; compared with Mφ; data not shown. Type of experiment: cell-based. On the procedure:
Peripheral blood mononuclear cells (PBMC) were obtained from healthy human volunteers (Blood collection center, Angers, France; agreement ANG-2017-01) by standard density-gradient centrifugation on lymphocyte separation medium (Eurobio, Courtaboeuf, France). CD14+ monocytes were then isolated by positive magnetic cell-sorting (Miltenyi Biotec, Bergisch Gladbach, Germany). Monocytes (1×10^6 cells/mL) were cultured in complete medium (CM) consisting of RPMI 1640 (Lonza, Verviers, Belgium) supplemented with 10% fetal calf serum (FCS) (Eurobio), 2 mM L-glutamine, 1 mM sodium pyruvate, 0.1 mM non-essential amino acids, 10 mM HEPES, 100 U/mL penicillin and 100 μg/mL streptomycin (all from Lonza) in the presence of 50 ng/mL GM-CSF (R&D Systems, Minneapolis, MN). […]
Cells were first incubated with 150 nM MitoTracker Green (Thermo Fisher Scientific) in CM medium at 37° C. for 10 min. […] Image blobs were then analyzed with the regionprops function of Matlab.
We fixed 5×10^6 macrophages by incubation for 16 h at 4° C. with 2.5% electron-grade glutaraldehyde (LFD Distribution, Sainte Consorce, France) in 0.1 M phosphate buffer pH 7.4. […] Stitched images were reviewed and scored by a trained electron histopathologist for the presence of autophagy and mitophagy vacuoles. Mitochondrial size was determined by measuring the maximum Feret diameter on TEM images.

Experiment [2] shares this test system. The experiment in a line: Metabolite quantification in culture supernatants and acetyl-CoA in lysates. Type of experiment: cell-based. As to the method: Peripheral blood mononuclear cells (PBMC) were obtained from healthy human volunteers (Blood collection center, Angers, France; agreement ANG-2017-01) by standard density-gradient centrifugation on lymphocyte separation medium (Eurobio, Courtaboeuf, France). CD14+ monocytes were then isolated by positive magnetic cell-sorting (Miltenyi Biotec, Bergisch Gladbach, Germany). Monocytes (1×10^6 cells/mL) were cultured in complete medium (CM) consisting of RPMI 1640 (Lonza, Verviers, Belgium) supplemented with 10% fetal calf serum (FCS) (Eurobio), 2 mM L-glutamine, 1 mM sodium pyruvate, 0.1 mM non-essential amino acids, 10 mM HEPES, 100 U/mL penicillin and 100 μg/mL streptomycin (all from Lonza) in the presence of 50 ng/mL GM-CSF (R&D Systems, Minneapolis, MN).
Experiments were performed in the presence of 10 mM lactic acid (Sigma-Aldrich, St Louis, MO) resulting in a pHe of 6.5 to generate LA-Mφ (lactic acidosis conditioning), 12.35 mM HCl to reach a final pHe of 6.5 and to generate HCl-Mφ(acidosis conditioning), 10 mM sodium lactate (Sigma-Aldrich) to generate lactate-Mφ (lactosis conditioning, pH 7.3), in the absence or presence of 5 mM lithium acetoacetate (AcAc) (Sigma-Aldrich, St Louis, MO).
The levels of glucose, glutamine, free L-amino acids and lactate in cell culture supernatants, and of acetyl-CoA in whole-cell lysates were determined, together with the intracellular ADP/ATP ratio, with enzymatic assays (Abcam), according to the manufacturer's instructions. […] Acetoacetate concentrations were quantified with β-hydroxybutyrate dehydrogenase (3-HBDH) (Roche Applied Science), an enzyme that catalyzes the reversible reduction of acetoacetate to β-hydroxybutyrate in the presence of excess NADH, with the concomitant oxidation of NADH. The progress of the reaction was monitored by measuring the decrease in 340 nm absorbance due to the conversion of NADH into NAD. AcAc consumption was determined by subtracting the concentration of AcAc in cell culture supernatants from that in cell-free culture supernatants.

Experiment [3] relates to PBMC from septic shock patients. The experiment is described as follows: Apoptosis of PBMC from septic shock patients (7-AAD, Annexin-V flow cytometry). In kind it is cell-based, human. The note with it: 5 mM AcAc, FIG. 4E. As to the method: Apoptosis was assessed by flow cytometry in freshly purified PBMC or after 3-day culture with or without AcAc. Cells were labeled with 7-AAD, Annexin-V FITC and anti-CD14 APC monoclonal antibody (all from BD Biosciences, San Jose, CA) and apoptotic monocytes were defined as CD14+ Annexin-V+ cells.
Peripheral blood mononuclear cells (PBMC) from septic patients and healthy subjects were purified by standard density-gradient centrifugation on lymphocyte separation medium (Eurobio, Courtaboeuf, France). PBMC were cultured for 24 h in a medium consisting of RPMI 1640 medium with L-glutamine and without glucose (Lonza, Verviers, Belgium) and supplemented with 6% FCS (Eurobio), 3% autologous plasma, 0.5 g/L glucose, 100 U/mL penicillin and 100 μg/mL streptomycin (all from Lonza) in the presence of 2 ng/mL GM-CSF (R&D Systems). In some experiments, the culture medium was supplemented with 5 mM AcAc or adjusted to 4 g/L glucose. After 24 h culture, the percentage of cells with depolarized mitochondria was assessed as described above. After 3 days of culture, intracellular ATP has been quantified as described above.

Turning to `CC(=O)CC(=O)[O-].[Li+]` [AcAc, lithium acetoacetate], the “mitochondrial network architecture (morphology and size)” value in experiment [1] is “protected the mitochondrial network architecture”. Further, the “uptake of glucose and amino acids and production of lactate” value in experiment [2] (LA-Mφ in the presence of 5 mM AcAc, FIG. 2A-D) is “retain a partial capacity to take up glucose and amino acids and to produce lactate”. The “AcAc consumption by cells” value in experiment [2] (LA-Mφ+AcAc culture supernatants, days 1 and 3, FIG. 2F) was “consume AcAc”. The “intracellular AcCoA levels” value in experiment [2] (reduction induced by LA, in the presence of 5 mM AcAc) was “prevented the reduction of intracellular AcCoA levels”. For the same molecule, the “protection of patient PBMCs from death by apoptosis” value in experiment [3] is recorded as “drastically protects”.

The values are drawn from patent US20240325330A1, “NEW METHOD TO TREAT ACIDOSIS RELATED DISEASES WITH ACETOACETATE” (INSTITUT NATIONAL DE LA SANTÉ ET DE LA RECHERCHE MÉDICALE, priority 2021, published 2024).
